We go through 26 molecules from US20250179032A1, “HETEROCYCLIC INHIBITORS OF GLUT9 FOR TREATMENT OF DISEASE” (HORIZON THERAPEUTICS IRELAND DAC, priority 2022, published 2025).

The term IC50 denotes the concentration at which inhibition is half-maximal.

In the first assay the target is T1, H. sapiens SLC2A9 variant 2 (GLUT9B) (Homo sapiens, UniProt Q9NRM0).
T1 sequence (Q9NRM0 1-511 isoform Q9NRM0-2): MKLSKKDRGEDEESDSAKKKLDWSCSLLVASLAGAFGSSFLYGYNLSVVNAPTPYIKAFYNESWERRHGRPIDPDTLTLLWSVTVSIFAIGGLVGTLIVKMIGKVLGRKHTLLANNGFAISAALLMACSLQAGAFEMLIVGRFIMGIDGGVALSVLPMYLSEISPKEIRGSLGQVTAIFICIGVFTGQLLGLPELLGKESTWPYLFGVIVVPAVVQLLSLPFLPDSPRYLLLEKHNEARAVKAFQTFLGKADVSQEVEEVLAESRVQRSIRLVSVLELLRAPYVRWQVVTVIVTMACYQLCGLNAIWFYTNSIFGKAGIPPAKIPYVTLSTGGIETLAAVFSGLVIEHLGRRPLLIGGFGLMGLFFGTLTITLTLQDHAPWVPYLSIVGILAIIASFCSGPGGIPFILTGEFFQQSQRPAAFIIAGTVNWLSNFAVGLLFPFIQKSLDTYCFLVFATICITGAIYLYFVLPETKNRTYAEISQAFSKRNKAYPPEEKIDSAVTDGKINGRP
The assay is described as follows: GLUT9 functional assay: uric acid uptake in HEK293T cells, allantoin formation by MS/MS as proxy of GLUT9B inhibition. Type of assay: cell-based. The settings on record: 15 minute assay; HEK293T cells stably expressing GLUT9B and transiently A. oryzae uricase; uric acid 0.3 mM, 37° C.; read-out: 15 min IC50. A digest of the protocol: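 HEK293T cells stably expressing human GLUT9B and transiently expressing A. oryzae uricase, exposed across a 12-point curve to 0.3 mM uric acid (Km) in sodium gluconate buffer pH 7.4 for 15 or 60 min at 37° C. Allantoin in lysates quantified by RapidFire MS/MS (positive ion) against a matrix-matched standard curve as proxy for uptake.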
Take `O=C(O)C1CCN(c2nc(CCCC(F)(F)F)cnc2-c2cnc3occc3c2)CC1` [Compound 116, 1-(3-(furo[2,3-b]pyridin-5-yl)-6-(4,4,4-trifluorobutyl)pyrazin-2-yl)piperidine-4-carboxylic acid]: the IC50 is under 500 nM.
On the same count and under the same terms, in the case of `COCCOCCOc1ccc(-c2ncc(CCCC(F)(F)F)nc2N2CCC(C(=O)O)CC2)cc1` [Compound 117, 1-(3-(4-(2-(2-methoxyethoxy)ethoxy)phenyl)-6-(4,4,4-trifluorobutyl)pyrazin-2-yl)piperidine-4-carboxylic acid] it was 500 to 2000 nM; in that of `COCCOCCCc1cnc(-c2cc(F)c3occc3c2)c(N2CCC(C(=O)O)CC2)n1` [Compound 118, 1-(3-(7-fluorobenzofuran-5-yl)-6-(3-(2-methoxyethoxy)propyl)pyrazin-2-yl)piperidine-4-carboxylic acid], 500 to 2000 nM.
The same measure, in the same setting: with `O=C(O)C1CCN(c2nc(CCC(F)(F)F)cnc2-c2ccc3c(c2)CCO3)CC1` [Compound 119, 1-(3-(2,3-dihydrobenzofuran-5-yl)-6-(3,3,3-trifluoropropyl)pyrazin-2-yl)piperidine-4-carboxylic acid] the figure was under 500 nM; with `O=C(O)C1CCN(c2nc(CCC(F)(F)F)cnc2-c2ccc3c(c2)OCO3)CC1` [Compound 120, 1-(3-(benzo[d][1,3]dioxol-5-yl)-6-(3,3,3-trifluoropropyl)pyrazin-2-yl)piperidine-4-carboxylic acid], under 500 nM; with `O=C(O)C1CCN(c2nc(CCC(F)(F)F)cnc2-c2ccc3occc3c2)CC1` [Compound 121, 1-(3-(benzofuran-5-yl)-6-(3,3,3-trifluoropropyl)pyrazin-2-yl)piperidin-4-carboxylic acid], under 500 nM.
Still for that read-out and setting: with `O=C(O)C1CCN(c2nc(CCC(F)(F)F)cnc2-c2ccc3c(c2)OCCO3)CC1` [Compound 122, 1-(3-(2,3-dihyrobenzo[b][1,4]dioxin-6-yl)-6-(3,3,3-trifluoropropyl)pyrazin-2-yl)piperidine-4-carboxylic acid] the figure was 500 to 2000 nM; with `O=C(O)C1CCN(c2nc(CCCC(F)(F)F)cnc2-c2ccc3occc3c2)CC1` [Compound 123, 1-(3-(benzofuran-5-yl)-6-(4,4,4-trifluorobutyl)pyrazin-2-yl)piperidine-4-carboxylic acid], under 500 nM; with `O=C(O)C1CCN(c2nc(CCC(F)(F)C(F)(F)F)cnc2-c2ccc3occc3c2)CC1` [Compound 124, 1-(3-(benzofuran-5-yl)-6-(3,3,4,4,4-pentafluorobutyl)pyrazin-2-yl)piperidine-4-carboxylic acid], under 500 nM.
In the case of `COCCOc1ccc(-c2ncc(CCC(F)(F)C(F)(F)F)nc2N2CCC(C(=O)O)CC2)cc1` [Compound 125, 1-(3-(4-(2-methoxyethoxy)phenyl)-6-(3,3,4,4,4-pentafluorobutyl)pyrazin-2-yl)piperidine-4-carboxylic acid], the half-maximal inhibitory concentration (IC50) lay within 500 to 2000 nM.
For the molecule `O=C(O)C1CCN(c2nc(CCC(F)(F)C(F)(F)F)cnc2-c2ccc3c(c2)OCO3)CC1` [Compound 126, 1-(3-(benzo[d][1,3]dioxol-5-yl)-6-(3,3,4,4,4-pentafluorobutyl)pyrazin-2-yl)piperidine-4-carboxylic acid], the IC50 was under 500 nM.
Still for that read-out and setting: in the case of `O=C(O)C1CCN(c2nc(CC(C(F)(F)F)C(F)(F)F)cnc2-c2ccc3c(c2)OCO3)CC1` [Compound 127, 1-(3-(benzo[d][1,3]dioxol-5-yl)-6-(3,3,3-trifluoro-2-(trifluoromethyl)propyl)pyrazin-2-yl)piperidine-4-carboxylic acid] it was 500 to 2000 nM; in that of `O=C(O)C1CCN(c2nc(CCCC(F)(F)F)cnc2-c2cc(F)c3occc3c2)CC1` [Compound 129, 1-(3-(7-fluorobenzofuran-5-yl)-6-(4,4,4-trifluorobutyl)pyrazin-2-yl)piperidine-4-carboxylic acid], under 500 nM.
The same measure, in the same setting: with `O=C(O)C1CCN(c2nc(CCCCC(F)(F)F)cnc2-c2ccc3occc3c2)CC1` [Compound 130, 1-(3-(benzofuran-5-yl)-6-(5,5,5-Trifluoropentyl)Pyrazin-2-yl)Piperidine-4-carboxylic acid] the figure was under 500 nM; with `O=C(O)C1CCN(c2nc(CCCCC(F)(F)F)cnc2-c2ccc3c(c2)CCO3)CC1` [Compound 131, 1-(3-(2,3-dihydrobenzofuran-5-yl)-6-(5,5,5-trifluoropentyl)pyrazin-2-yl)piperidine-4-carboxylic acid], under 500 nM.
Same read-out and setting: with `O=C(O)C1CCN(c2nc(CCCCC(F)(F)F)cnc2-c2ccc3c(c2)OCO3)CC1` [Compound 132, 1-(3-(benzo[d][1,3]dioxol-5-yl)-6-(5,5,5-trifluoropentyl)pyrazin-2-yl)piperidine-4-carboxylic acid] the figure was under 500 nM; with `COCCOc1ccc(-c2ncc(CCCCC(F)(F)F)nc2N2CCC(C(=O)O)CC2)cc1` [Compound 133, 1-(3-(4-(2-methoxyethoxy)phenyl)-6-(5,5,5-trifluoropentyl)pyrazin-2-yl)piperidine-4-carboxylic acid], under 500 nM.
With `CC(F)(F)CCc1cnc(-c2ccc3occc3c2)c(N2CCC(C(=O)O)CC2)n1` [Compound 134, 1-(3-(benzofuran-5-yl)-6-(3,3-difluorobutyl)pyrazin-2-yl)piperidine-4-carboxylic acid], the IC50 is under 500 nM.
The same measure, in the same setting: with `CC(F)(F)CCc1cnc(-c2ccc3c(c2)CCO3)c(N2CCC(C(=O)O)CC2)n1` [Compound 135, 1-(6-(3,3-difluorobutyl)-3-(2,3-dihydrobenzofuran-5-yl)pyrazin-2-yl)piperidine-4-carboxylic acid] the figure was 500 to 2000 nM; with `CC(F)(F)CCc1cnc(-c2ccc3c(c2)OCO3)c(N2CCC(C(=O)O)CC2)n1` [Compound 136], under 500 nM.
The same measure, in the same setting: in the case of `COCCOc1ccc(-c2ncc(CCC(C)(F)F)nc2N2CCC(C(=O)O)CC2)cc1` [Compound 137, 1-(6-(3,3-difluorobutyl)-3-(4-(2-methoxyethoxy)phenyl)pyrazin-2-yl)piperidine-4-carboxylic acid] it was 500 to 2000 nM; in that of `COCCCCc1cnc(-c2ccc3occc3c2)c(N2CCC(C(=O)O)CC2)n1` [Compound 138, 1-(3-(benzofuran-5-yl)-6-(4-methoxybutyl)pyrazin-2-yl)piperidine-4-carboxylic acid], under 500 nM.
Still for that read-out and setting: with `COCCCCc1cnc(-c2ccc3c(c2)CCO3)c(N2CCC(C(=O)O)CC2)n1` [Compound 139, 1-(3-(2,3-dihydrobenzofuran-5-yl)-6-(4-methoxybutyl)pyrazin-2-yl)piperidine-4-carboxylic acid] the figure was under 500 nM; with `COCCCCc1cnc(-c2ccc3c(c2)OCO3)c(N2CCC(C(=O)O)CC2)n1` [Compound 140, 1-(3-(benzo[d][1,3]dioxol-5-yl)-6-(4-methoxybutyl)pyrazin-2-yl)piperidine-4-carboxylic acid], under 500 nM.
As for `COCCCCc1cnc(-c2ccc(OCCOC)cc2)c(N2CCC(C(=O)O)CC2)n1` [Compound 141, 1-(6-(4-methoxybutyl)-3-(4-(2-methoxyethoxy)phenyl)pyrazin-2-yl)piperidine-4-carboxylic acid], the half-maximal inhibitory concentration (IC50) is under 500 nM.
Take `O=C(O)C1CCN(c2nc(CCCC(F)F)cnc2-c2ccc3occc3c2)CC1` [Compound 142, 1-(3-(benzofuran-5-yl)-6-(4,4-difluorobutyl)pyrazin-2-yl)piperidine-4-carboxylic acid]: the concentration for half-maximal inhibition (IC50) is under 500 nM.

Still in this assay, the particulars now being: 60 minute assay; HEK293T cells stably expressing GLUT9B and transiently A. oryzae uricase; uric acid 0.3 mM, 37° C.; read-out: 60 min IC50.
With `COCCCCc1cnc(-c2ccc3occc3c2)c(N2CCC(C(=O)O)CC2)n1` [Compound 138, 1-(3-(benzofuran-5-yl)-6-(4-methoxybutyl)pyrazin-2-yl)piperidine-4-carboxylic acid], the concentration for half-maximal inhibition (IC50) was under 500 nM.
In the case of `O=C(O)C1CCN(c2nc(CCCC(F)F)cnc2-c2ccc3occc3c2)CC1` [Compound 142, 1-(3-(benzofuran-5-yl)-6-(4,4-difluorobutyl)pyrazin-2-yl)piperidine-4-carboxylic acid], the IC50 is under 500 nM.
